Among the data in publication PMC2920140 (Inorganic chemistry, 2010) are Kd values, retold here.

pKd: −log10 of the molar value.

This assay addresses T1, CLOCK PAS–A (murine CLOCK PAS-A domain, mCLOCK) (Mus musculus, UniProt O08785).
T1 sequence (O08785 103-265): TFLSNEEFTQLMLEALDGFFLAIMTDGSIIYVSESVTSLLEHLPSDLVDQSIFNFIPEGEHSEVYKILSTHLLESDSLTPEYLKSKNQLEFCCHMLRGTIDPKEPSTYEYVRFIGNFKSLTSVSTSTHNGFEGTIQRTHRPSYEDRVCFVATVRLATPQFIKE
Nature of the assay: UV-visible spectrophotometric titration, global nonlinear least squares fit. In kind it is binding.

`C=CC1=C(C)C2=Cc3c(C=C)c(C)c4[n]3[Fe]([Cl])[n]3c(c(C)c(CCC(=O)O)c3=CC3=NC(=C4)C(C)=C3CCC(=O)O)=CC1=N2` [hemin] had a pKd of 5.98.
